Test results published in patent US4940711A, “Antihypertensive N-piperazinylalkanoylanilides” (Recordati, S.A., Chemical and Pharmaceutical Company, priority 1983, dated 1990).
Where a name gives a salt, the structure may show the parent alone.

What was measured:
[1] = tested on: spontaneously hypertensive rats; experiment: Antihypertensive activity (systolic blood pressure, indirect tail-cuff method) in conscious spontaneously hypertensive rats; assay type: in vivo; details: Rattus norvegicus, po; os, conscious SHR, 1, 3, 5 and 7 hours after administration; from linear regression of dose-response curve; hydrochloride salt except AC 2, 4 and 9 (free bases); read-out: ED25 (drug dose producing a 25% decrease in systolic blood pressure)
Method: Antihypertensive activity was evaluated in male spontaneously hypertensive rats (SHR, Wister-Kyoto strain, 15-25 weeks old). The determination of blood pressure was performed by the indirect method (M. Gerald et al, Arzneim.-Forsch., 18, 1825, 1968). The animals were prewarmed in a heating chamber at a temperature from 35° to 37° C. for a period of 15 minutes before administering the compounds. The compounds tested by the oral route were dissolved or suspended in a 0.5% methylcellulose solution. Controls were given only the vehicle. Systolic blood pressure and heart rate were measured 1, 3, 5 and 7 hours after drug administration by means of a tail-cuff and the pulse pick-up method using a recorder.
In the Table I, the antihypertensive activity was expressed as ED25, which is the drug dose producing a 25% decrease in systolic blood pressure in conscious spontaneously hypertensive rats. The ED25 was calculated from the linear regression of the dose-response curve.
(§1) ^a all compounds were tested as the hydrochloride salt, except for AC
(§2) 2, 4 and 9 (tested as free bases)

[2] = LD50 in the mouse per os (acute toxicity); details: in vivo, po, tested as hydrochloride salt except AC 2, 4 and 9 (free bases)
Method: The LD50 of the compounds according to the invention was determined in the mouse per os following the method described by C. S. Weil (Biometrics,8, 249, 1952).
In the following Table I, the numbers under AC (active compound) indicate the compounds described in the corresponding Examples (thus "1" indicates the compound prepared in Example 1).
as §1, §2

## COc1ccccc1N1CCN(CCC(=O)Nc2ccc(S(C)(=O)=O)cc2)CC1 [Example 2, 4-Methylsulphonyl-β-[4-(2-methoxyphenyl)-1-piperazinyl]-propionylanilide]
[1]
  ED25: 7.5 mg/kg
[2]
  LD50: > 3000 mg/kg

## COc1ccccc1N1CCN(CCC(=O)Nc2ccc(S(N)(=O)=O)cc2)CC1 [Example 4, 4-Sulphamoyl-β-[4-(2-methoxyphenyl)-1-piperazinyl]-propionylanilide]
[1]
  ED25: 8.1 mg/kg
[2]
  LD50: > 3000 mg/kg

## COc1ccccc1N1CCN(CCC(=O)Nc2ccc(C(N)=O)cc2)CC1 [Example 5, 4-Carbamoyl-β-[4-(2-methoxyphenyl)-1-piperazinyl]-propionylanilide]
[1]
  ED25: 54.5 mg/kg
[2]
  LD50: > 3000 mg/kg

## COc1ccccc1N1CCN(CCC(=O)Nc2ccc(C(C)=O)cc2)CC1 [Example 6a, 4-acetyl-β-[4-(2-methoxyphenyl)-1-piperazinyl]-propionylanilide]
[1]
  ED25: 58.5 mg/kg
[2]
  LD50: 2200 mg/kg

## COc1ccccc1N1CCN(CCC(=O)Nc2cccc(C(F)(F)F)c2)CC1 [Example 6b, 3-trifluoromethyl-β-[4-(2-methoxyphenyl)-1-piperazinyl]-propionylanilide hydrochloride]
[1]
  ED25: 48.8 mg/kg
[2]
  LD50: 1600 mg/kg

## COc1ccc(NC(=O)CCN2CCN(c3ccccc3OC)CC2)cc1 [Example 6c, 4-methoxy-β-[4-(2-methoxyphenyl)-1-piperazinyl]-propionylanilide]
[1]
  ED25: 10 mg/kg
[2]
  LD50: > 3000 mg/kg

## COc1cccc(NC(=O)CCN2CCN(c3ccccc3OC)CC2)c1 [Example 6d, 3-methoxy-β-[4-(2-methoxyphenyl)-1-(piperazinyl]-propionylanilide hydrochloride]
[1]
  ED25: 69 mg/kg
[2]
  LD50: 649 mg/kg

## COc1ccccc1N1CCN(CCC(=O)Nc2ccc(C#N)cc2)CC1 [Example 6f, 4-cyano-β-[4-(2-methoxyphenyl)-1-piperazinyl]-propionylanilide]
[1]
  ED25: 17.2 mg/kg
[2]
  LD50: 320 mg/kg

## COc1ccccc1N1CCN(CCC(=O)Nc2ccc([N+](=O)[O-])cc2)CC1 [Example 7, 4-Nitro-β-[4-(2-methoxyphenyl)-1-piperazinyl]-propionylanilide]
[1]
  ED25: 50.5 mg/kg
[2]
  LD50: 2100 mg/kg

## COc1ccccc1N1CCN(CC(=O)Nc2ccc(N)cc2)CC1 [Example 8a]
[1]
  ED25: 70.2 mg/kg
[2]
  LD50: 1000 mg/kg

## COc1ccccc1N1CCN(CCC(=O)Nc2ccc(C(C)O)cc2)CC1 (stereo not drawn) [Example 9, 4-(1Hydroxyethyl)-β-[4-(2-methoxyphenyl)-1-piperazinyl]-propionylanilide]
[1]
  ED25: 69 mg/kg
[2]
  LD50: 537 mg/kg

## COc1ccccc1N1CCN(C(C)CC(=O)Nc2ccc(S(N)(=O)=O)cc2)CC1 (stereo not drawn) [Example 10, 4-Sulphamoyl-β-[4-(2-methoxyphenyl)-1-piperazinyl]-butyrylanilide]
[1]
  ED25: 8.7 mg/kg
[2]
  LD50: > 3000 mg/kg

## COc1ccccc1N1CCN(CCC(=O)Nc2ccc(S(=O)(=O)NC(C)=O)cc2)CC1 [Example 11, 4-Acetylsulphamoyl-β-[4-(2-methoxyphenyl)-1-piperazinyl]-propionylanilide]
[1]
  ED25: 100 mg/kg
[2]
  LD50: > 3000 mg/kg

## COc1ccccc1N1CCN(CCC(=O)Nc2ccc(NC(C)=O)cc2)CC1 [Example 12, 4-Acetylamino-β-[4-(2-methoxyphenyl)-1-piperazinyl]-propionylanilide]
[1]
  ED25: 100 mg/kg
[2]
  LD50: > 3000 mg/kg

## COc1ccccc1N1CCN(CCC(=O)Nc2cccc(S(N)(=O)=O)c2)CC1 [Example 13, 3-Sulphamoyl-β-[4-(2-methoxyphenyl)-1-piperazinyl]-propionylanilide hydrate]
[1]
  ED25: 100 mg/kg
[2]
  LD50: > 3000 mg/kg

## COc1ccccc1N1CCN(CCC(=O)Nc2cccc(Cl)c2)CC1 [Example 14, 3-Chloro-β-[4-(2-methoxyphenyl)-1-piperazinyl]-propinylanilide]
[1]
  ED25: 100 mg/kg
[2]
  LD50: > 3000 mg/kg

## COc1ccccc1N1CCN(CCC(=O)Nc2ccc3c(c2)OCO3)CC1 [Example 19, 3,4-Methylenedioxy-β-[4-(2-methoxyphenyl)-1-piperazinyl]-propionylanilide]
[1]
  ED25: 100 mg/kg
[2]
  LD50: 340 mg/kg

## COc1ccccc1N1CCN(CCC(=O)Nc2cc(OC)c(OC)c(OC)c2)CC1 [Example 20, 3,4,5-Trimethoxy-β-[4-(2-methoxyphenyl)-1-piperazinyl]-propionylanilide hydrochloride]
[1]
  ED25: 60 mg/kg
[2]
  LD50: 730 mg/kg

## COc1ccccc1N1CCN(CCC(=O)Nc2ccc(S(=O)(=O)N(C)C)cc2)CC1 [Example 21, 4-(Dimethylsulphamoyl)-β-[4-(2-methoxyphenyl)-1-piperazinyl]-propionylanilide]
[1]
  ED25: 60 mg/kg
[2]
  LD50: > 3000 mg/kg
